The results in this text go back to PubChem BioAssay AID1259407 (Chemical Carcinogenesis Research Information System (CCRIS), 2018).

The subject of the data set is CCRIS mutagenicity, Ames/micronucleus/aberration tests. Nature of the data set: CCRIS mutagenicity studies.
Where [1] appears, read: Test System: AMES SALMONELLA TYPHIMURIUM, Strain/Indicator: TA98(1,8-DNP), Metabolic Activation: NONE, Method: PREINCUBATION
[2] abbreviates: Test System: AMES SALMONELLA TYPHIMURIUM, Strain/Indicator: TA98(1,8-DNP), Metabolic Activation: RAT, LIVER, S-9, PCB, Method: PREINCUBATION
Setting [3] is: Test System: AMES SALMONELLA TYPHIMURIUM, Strain/Indicator: TA98(NR), Metabolic Activation: NONE, Method: PREINCUBATION
Where [4] appears, read: Test System: AMES SALMONELLA TYPHIMURIUM, Strain/Indicator: TA98(NR), Metabolic Activation: RAT, LIVER, S-9, PCB, Method: PREINCUBATION
Where [5] appears, read: Test System: AMES SALMONELLA TYPHIMURIUM, Strain/Indicator: TA98, Metabolic Activation: NONE, Method: PREINCUBATION
Setting [6] is: Test System: AMES SALMONELLA TYPHIMURIUM, Strain/Indicator: TA98, Metabolic Activation: RAT, LIVER, S-9, PCB, Method: PREINCUBATION
[7] abbreviates: Test System: AMES SALMONELLA TYPHIMURIUM, Strain/Indicator: TA100(1,8-DNP), Metabolic Activation: NONE, Method: PREINCUBATION
Setting [8] is: Test System: AMES SALMONELLA TYPHIMURIUM, Strain/Indicator: TA100(NR), Metabolic Activation: NONE, Method: PREINCUBATION
The mark [9] stands for this setting: Test System: AMES SALMONELLA TYPHIMURIUM, Strain/Indicator: TA100(NR), Metabolic Activation: RAT, LIVER, S-9, PCB, Method: PREINCUBATION
Where [10] appears, read: Test System: AMES SALMONELLA TYPHIMURIUM, Strain/Indicator: TA100, Metabolic Activation: NONE, Method: PREINCUBATION
Where [11] appears, read: Test System: AMES SALMONELLA TYPHIMURIUM, Strain/Indicator: TA100, Metabolic Activation: RAT, LIVER, S-9, PCB, Method: PREINCUBATION
The mark [12] stands for this setting: Test System: AMES SALMONELLA TYPHIMURIUM, Strain/Indicator: YG1020, Metabolic Activation: NONE, Method: PREINCUBATION
The mark [13] stands for this setting: Test System: AMES SALMONELLA TYPHIMURIUM, Strain/Indicator: YG1020, Metabolic Activation: RAT, LIVER, S-9, PCB, Method: PREINCUBATION
Setting [14] is: Test System: AMES SALMONELLA TYPHIMURIUM, Strain/Indicator: YG1021, Metabolic Activation: RAT, LIVER, S-9, PCB, Method: PREINCUBATION
Where [15] appears, read: Test System: AMES SALMONELLA TYPHIMURIUM, Strain/Indicator: YG1024, Metabolic Activation: RAT, LIVER, S-9, PCB, Method: PREINCUBATION
Where [16] appears, read: Test System: AMES SALMONELLA TYPHIMURIUM, Strain/Indicator: YG1025, Metabolic Activation: NONE, Method: PREINCUBATION
Where [17] appears, read: Test System: AMES SALMONELLA TYPHIMURIUM, Strain/Indicator: YG1025, Metabolic Activation: RAT, LIVER, S-9, PCB, Method: PREINCUBATION
The mark [18] stands for this setting: Test System: AMES SALMONELLA TYPHIMURIUM, Strain/Indicator: YG1026, Metabolic Activation: NONE, Method: PREINCUBATION
The mark [19] stands for this setting: Test System: AMES SALMONELLA TYPHIMURIUM, Strain/Indicator: YG1026, Metabolic Activation: RAT, LIVER, S-9, PCB, Method: PREINCUBATION
The mark [20] stands for this setting: Test System: AMES SALMONELLA TYPHIMURIUM, Strain/Indicator: YG1029, Metabolic Activation: NONE, Method: PREINCUBATION
Setting [21] is: Test System: AMES SALMONELLA TYPHIMURIUM, Strain/Indicator: YG1029, Metabolic Activation: RAT, LIVER, S-9, PCB, Method: PREINCUBATION
The mark [22] stands for this setting: Test System: AMES SALMONELLA TYPHIMURIUM, Strain/Indicator: TA100, Metabolic Activation: NONE, Method: STANDARD PLATE.

Active and inactive are the calls of the source. How the calls were made is not given here.

As to `O=[N+]([O-])c1ccc(Nc2ncnc3c2ncn3-c2ccc([N+](=O)[O-])cc2)cc1`, the mutagenic call was “inactive; negative” under setting [1]; “inactive; negative” under setting [2]; “inactive; negative” under setting [3]; “inactive; negative” under setting [4]; “inactive; negative” under setting [5]; “inactive; negative” under setting [6]. Moreover, the mutagenic call runs as follows: under setting [7], “inactive; negative”; (Test System: AMES SALMONELLA TYPHIMURIUM, Strain/Indicator: TA100(1,8-DNP), Metabolic Activation: RAT, LIVER, S-9, PCB, Method: PREINCUBATION) “inactive; negative”; under setting [8], “inactive; negative”; under setting [9], “inactive; negative”; under setting [10], “inactive; negative”; under setting [11], “inactive; negative”. The mutagenic call runs as follows: under setting [12], “inactive; negative”; under setting [13], “inactive; negative”; under setting [14], “active; positive”; under setting [15], “inactive; negative”; under setting [16], “inactive; negative”; under setting [17], “inactive; negative”. Also, the mutagenic call is, setting by setting: under setting [18], “inactive; negative”; under setting [19], “inactive; negative”; under setting [20], “inactive; negative”; under setting [21], “inactive; negative”.
Consider `CC(C)CCCC(C)C1CCC2C3CC=C4CC(OCCO)CCC4(C)C3CCC12C` (stereo not given), for which the mutagenic call (Test System: AMES SALMONELLA TYPHIMURIUM, Strain/Indicator: TA98, Metabolic Activation: NONE, Method: STANDARD PLATE) was “inactive; negative”; the mutagenic call (Test System: AMES SALMONELLA TYPHIMURIUM, Strain/Indicator: TA98, Metabolic Activation: RAT, LIVER, MICROSOMES, Method: STANDARD PLATE) was “inactive; negative”; the mutagenic call under setting [22] was “inactive; negative”; the mutagenic call (Test System: AMES SALMONELLA TYPHIMURIUM, Strain/Indicator: TA100, Metabolic Activation: RAT, LIVER, MICROSOMES, Method: STANDARD PLATE) was “inactive; negative”.
Take `Cc1cccc2c1-c1ccccc1C2C` (stereo not given): the mutagenic call was “active; positive” (Test System: AMES SALMONELLA TYPHIMURIUM, Strain/Indicator: TA98, Metabolic Activation: RAT, LIVER, S-9, AROCLOR 1254, Method: STANDARD PLATE) and “active; positive” (Test System: AMES SALMONELLA TYPHIMURIUM, Strain/Indicator: TA100, Metabolic Activation: RAT, LIVER, S-9, AROCLOR 1254, Method: STANDARD PLATE).
Take `O=C=Nc1cccc2c(N=C=O)cccc12`: the mutagenic call runs as follows: under setting [5], “inactive; negative”; (Test System: AMES SALMONELLA TYPHIMURIUM, Strain/Indicator: TA98, Metabolic Activation: RAT LIVER S-9, PHENOBARBITAL AND BETA-NAPHTHOFLAVONE, Method: PREINCUBATION) “inactive; negative”; under setting [10], “inactive; negative”; (Test System: AMES SALMONELLA TYPHIMURIUM, Strain/Indicator: TA100, Metabolic Activation: RAT LIVER S-9, PHENOBARBITAL AND BETA-NAPHTHOFLAVONE, Method: PREINCUBATION) “inactive; negative”; (Test System: AMES SALMONELLA TYPHIMURIUM, Strain/Indicator: TA1535, Metabolic Activation: NONE, Method: PREINCUBATION) “inactive; negative”; (Test System: AMES SALMONELLA TYPHIMURIUM, Strain/Indicator: TA1535, Metabolic Activation: RAT LIVER S-9, PHENOBARBITAL AND BETA-NAPHTHOFLAVONE, Method: PREINCUBATION) “inactive; negative”. For the same molecule, the mutagenic call was “inactive; negative” (Test System: AMES SALMONELLA TYPHIMURIUM, Strain/Indicator: TA1537, Metabolic Activation: NONE, Method: PREINCUBATION); “inactive; negative” (Test System: AMES SALMONELLA TYPHIMURIUM, Strain/Indicator: TA1537, Metabolic Activation: RAT LIVER S-9, PHENOBARBITAL AND BETA-NAPHTHOFLAVONE, Method: PREINCUBATION); “inactive; negative” (Test System: AMES SALMONELLA TYPHIMURIUM, Strain/Indicator: TA1538, Metabolic Activation: NONE, Method: PREINCUBATION); “inactive; negative” (Test System: AMES SALMONELLA TYPHIMURIUM, Strain/Indicator: TA1538, Metabolic Activation: RAT LIVER S-9, PHENOBARBITAL AND BETA-NAPHTHOFLAVONE, Method: PREINCUBATION); “inactive; negative” (Test System: E.COLI, Strain/Indicator: WP2UVRA, Metabolic Activation: NONE, Method: PREINCUBATION); “inactive; negative” (Test System: E.COLI, Strain/Indicator: WP2UVRA, Metabolic Activation: RAT LIVER S-9, PHENOBARBITAL AND BETA-NAPHTHOFLAVONE, Method: PREINCUBATION).
With `CC(=O)ON(OCc1ccc(C)cc1)C(=O)c1ccccc1`, the mutagenic call was “active; positive” under setting [22] and “active; positive” (Test System: AMES SALMONELLA TYPHIMURIUM, Strain/Indicator: TA100, Metabolic Activation: RAT, S-9, AROCLOR, Method: STANDARD PLATE).
As to `Nc1nc(-c2ccc([N+](=O)[O-])cc2)nc2c1ncn2[C@H]1C[C@H](O)[C@@H](CO)O1`, the mutagenic call is “active; positive” under setting [1]; “active; positive” under setting [2]; “active; positive” under setting [3]; “active; positive” under setting [4]; “active; positive” under setting [5]; “active; positive” under setting [6]. In addition, the mutagenic call runs as follows: under setting [7], “active; positive”; under setting [8], “active; positive”; under setting [9], “active; positive”; under setting [10], “active; positive”; under setting [11], “active; positive”; under setting [12], “active; positive”. Moreover, the mutagenic call was “active; positive” under setting [13]; “active; positive” (Test System: AMES SALMONELLA TYPHIMURIUM, Strain/Indicator: YG1021, Metabolic Activation: NONE, Method: PREINCUBATION); “active; positive” under setting [14]; “active; positive” (Test System: AMES SALMONELLA TYPHIMURIUM, Strain/Indicator: YG1024, Metabolic Activation: NONE, Method: PREINCUBATION); “active; positive” under setting [15]; “active; positive” under setting [16]. The mutagenic call under setting [17] was “active; positive”; the mutagenic call under setting [18] is “active; positive”; the mutagenic call under setting [19] was “active; positive”; the mutagenic call under setting [20] was “active; positive”; the mutagenic call under setting [21] was “active; positive”.
